The text below walks through data of publication PMC4550094 (Journal of biomolecular screening, 2013).

Read-outs that look alike come from different tables or passages of the source.

For series [1], the system named is hERG channel. To be noted: cited from earlier work.
The test system of series [2] is HepG2 cells. Kind of series: LipidTOX Red PLD assay, qHTS, 1536-well high-content imaging. Type of series: cell-based, Human. Particulars: for PLD induction (result in words): HepG2, primary screen and cherry-pick confirmation; for EC50: Homo sapiens, HepG2, 24 h. A general note: Quantitative high-throughput screening tests each substance at several concentrations.
Series [3] concerns HepG2 cells. Particulars: cited from earlier work; for EC50: read-out: Literature-Reported EC50.
The test system of series [4] is H4 cells. Particulars: cited from earlier work.
Series [5] relates to Rat brain. Particulars: cited from earlier work.
In series [6] the test system is isolated lamellar bodies. To be noted: Binding study; cited from earlier work.
Setting [7] is: read-out: Confirmation EC50 (PLD induction).
Where [8] appears, read: read-out: Primary Screen EC50 (PLD induction).

`CC(C)(C)c1ccc(C(=O)CCCN2CCC(OC(c3ccccc3)c3ccccc3)CC2)cc1` [Ebastine]: the HERG channel block result in series [1] was “blocking”. Further, the “PLD induction (result in words)” value in series [2] is on record as “significantly induced PLD formation”.

As for `CC(=O)N1CCN(c2ccc(OCC3COC(Cn4ccnc4)(c4ccc(Cl)cc4Cl)O3)cc2)CC1` (centres unmarked) [Ketoconazole], the EC50 in series [2] (setting [7]) turned out to be 5.4 ± 2 µM; in series [2] (setting [8]), 2.8 µM. Besides, the “Literature-Reported: Active at (concentration)” value in series [3] was “Active at 8.3 µM”.

In the case of `Fc1ccc([C@@H]2CCNC[C@H]2COc2ccc3c(c2)OCO3)cc1` [Paroxetine], the “PLD induction (result in words)” value in series [2] was “induce PLD”. Moreover, the EC50 is 3 ± 0.7 µM in series [2] (setting [7]) and 5.6 µM in series [2] (setting [8]). For the same molecule, the “Literature-Reported: Active at (concentration)” value in series [4] is “Active at 5 µM”.

In the case of `N=C(N)c1ccc(OCCCCCOc2ccc(C(=N)N)cc2)cc1` [Pentamidine], the values for the 50% effective concentration (EC50) in series [2] (setting [7]), in series [2] (setting [8]) and in series [3] were 2.8 ± 2.4 µM, 1.4 µM and 8.3 µM, respectively.

With `CCN(CC)CCCC(C)Nc1c2ccc(Cl)cc2nc2ccc(OC)cc12` (centres unmarked) [Quinacrine], the “Literature-Reported: Active at (dose)” value in series [5] is “Active at 60 mg/kg”. The “PLD induction (result in words)” value in series [2] is “induce PLD”. In addition, the results for the EC50 in series [2] (setting [7]) and in series [2] (setting [8]) were 1 ± 0.2 µM and 5 µM, respectively.

On to `C=C[C@H]1C[N@@]2CC[C@H]1C[C@@H]2[C@@H](O)c1ccnc2ccc(OC)cc12` [Quinidine], for which the EC50 in series [2] (setting [7]) was 13.4 ± 2 µM; in series [2] (setting [8]) it was 15.8 µM; in series [3], 25 µM.

On to `CC(CN(C)C)CN1c2ccccc2CCc2ccccc21` (centres unmarked) [Trimipramine], for which the “PLD induction (result in words)” value in series [2] is listed as “induce PLD”. Besides, the EC50 is 8.7 ± 1.2 µM in series [2] (setting [7]) and 3.5 µM in series [2] (setting [8]). In addition, in series [6], the “Literature-Reported: Active at (concentration)” value was “Active at 1 mM”.

As usually defined, the EC50 is the concentration that produces a half-maximal response.
